According to ChEMBL document CHEMBL3885861, “Open TG-GATES”:

Species on record: Rattus norvegicus
Experiment: Open TG-GATES - Regimen: Single
Assay type: toxicity, organism-based, Sprague-Dawley
Set-up: regimen Single, gender Male, age 6 weeks
Conditions: in vivo, po, 50 mg/kg, route gavage, dose level Middle; for APTT / Bas / Eos / Fbg / Hb / Ht / Lym / MCH / MCHC / MCV / Mono / Neu / PT / Plat / RBC / Ret / WBC: tissue Blood; for KIDNEY_L / KIDNEY_R / KIDNEY_TOTAL: tissue Kidney; for LIVER: tissue Liver; for A/G / ALP / ALT / AST / BUN / CRE / Ca / Cl / DBIL / GLC / IP / K / LDH / Na / PL / RALB / TBIL / TC / TG / TP / gamma-GTP: tissue Plasma

Nc1nc(N)c2nc(-c3ccccc3)c(N)nc2n1
TERMINAL_BW (3 h): 214.5 g
APTT (3 h): 16.6 s
Bas (3 h): 0%
Eos (3 h): 0.8%
Fbg (3 h): 295.2 mg/dL
Hb (3 h): 14.3 g/dL
Ht (3 h): 43.1%
Lym (3 h): 77%
MCH (3 h): 21.2 pg
MCHC (3 h): 33.2%
MCV (3 h): 64 fL
Mono (3 h): 3.4%
Neu (3 h): 18.4%
PT (3 h): 13.9 s
Plat (3 h): 121.1 x10_4/uL
RBC (3 h): 673.2 x10_4/ul
Ret (3 h): 7%
WBC (3 h): 86.9 x10_2/uL
KIDNEY_L (3 h): 1 g
KIDNEY_R (3 h): 1 g
KIDNEY_TOTAL (3 h): 1.9 g
LIVER (3 h): 9.5 g
A/G (3 h): 0.9
ALP (3 h): 1490.4 IU/L
ALT (3 h): 42.4 IU/L
AST (3 h): 73.2 IU/L
BUN (3 h): 12.2 mg/dL
CRE (3 h): 0.2 mg/dL
Ca (3 h): 11 mg/dL
Cl (3 h): 105.2 meq/L
DBIL (3 h): 0.006 mg/dL
GLC (3 h): 165 mg/dL
IP (3 h): 8.7 mg/dL
K (3 h): 4.7 meq/L
LDH (3 h): 59.4 IU/L
Na (3 h): 141.4 meq/L
PL (3 h): 160.8 mg/dL
RALB (3 h): 2.7 g/dL
TBIL (3 h): 0.062 mg/dL
TC (3 h): 90.6 mg/dL
TG (3 h): 56.2 mg/dL
TP (3 h): 5.7 g/dL
gamma-GTP (3 h): 1.4 IU/L
TERMINAL_BW (6 h): 207.3 g
APTT (6 h): 16.9 s
Bas (6 h): 0%
Eos (6 h): 1%
Fbg (6 h): 337 mg/dL
Hb (6 h): 14.3 g/dL
Ht (6 h): 43.5%
Lym (6 h): 69.8%
MCH (6 h): 20.9 pg
MCHC (6 h): 32.9%
MCV (6 h): 63.5 fL
Mono (6 h): 2.2%
Neu (6 h): 27%
PT (6 h): 14.1 s
Plat (6 h): 124.3 x10_4/uL
RBC (6 h): 685.4 x10_4/ul
Ret (6 h): 7.5%
WBC (6 h): 81.3 x10_2/uL
KIDNEY_L (6 h): 1 g
KIDNEY_R (6 h): 1 g
KIDNEY_TOTAL (6 h): 1.9 g
LIVER (6 h): 9 g
A/G (6 h): 1
ALP (6 h): 1195.2 IU/L
ALT (6 h): 35.2 IU/L
AST (6 h): 72.4 IU/L
BUN (6 h): 11.4 mg/dL
CRE (6 h): 0.2 mg/dL
Ca (6 h): 10.9 mg/dL
Cl (6 h): 106.8 meq/L
DBIL (6 h): 0.01 mg/dL
GLC (6 h): 167.6 mg/dL
IP (6 h): 9.1 mg/dL
K (6 h): 5 meq/L
LDH (6 h): 62.6 IU/L
Na (6 h): 142.4 meq/L
PL (6 h): 149.4 mg/dL
RALB (6 h): 2.8 g/dL
TBIL (6 h): 0.06 mg/dL
TC (6 h): 81.2 mg/dL
TG (6 h): 54 mg/dL
TP (6 h): 5.6 g/dL
gamma-GTP (6 h): 1 IU/L
TERMINAL_BW (9 h): 208.4 g
APTT (9 h): 18 s
Bas (9 h): 0%
Eos (9 h): 1%
Fbg (9 h): 310.4 mg/dL
Hb (9 h): 14.1 g/dL
Ht (9 h): 42.6%
Lym (9 h): 70.2%
MCH (9 h): 20.9 pg
MCHC (9 h): 33.1%
MCV (9 h): 63 fL
Mono (9 h): 2%
Neu (9 h): 26%
PT (9 h): 13.9 s
Plat (9 h): 116.9 x10_4/uL
RBC (9 h): 677 x10_4/ul
Ret (9 h): 7.4%
WBC (9 h): 88.1 x10_2/uL
KIDNEY_L (9 h): 1 g
KIDNEY_R (9 h): 1 g
KIDNEY_TOTAL (9 h): 2 g
LIVER (9 h): 8.5 g
A/G (9 h): 0.9
ALP (9 h): 1205.8 IU/L
ALT (9 h): 37 IU/L
AST (9 h): 72 IU/L
BUN (9 h): 11.4 mg/dL
CRE (9 h): 0.2 mg/dL
Ca (9 h): 10.8 mg/dL
Cl (9 h): 105.8 meq/L
DBIL (9 h): 0.008 mg/dL
GLC (9 h): 161.8 mg/dL
IP (9 h): 10.6 mg/dL
K (9 h): 4.6 meq/L
LDH (9 h): 48.2 IU/L
Na (9 h): 142.6 meq/L
PL (9 h): 133.6 mg/dL
RALB (9 h): 2.7 g/dL
TBIL (9 h): 0.056 mg/dL
TC (9 h): 74.2 mg/dL
TG (9 h): 37.4 mg/dL
TP (9 h): 5.6 g/dL
gamma-GTP (9 h): 1.2 IU/L
TERMINAL_BW (24 h): 227.4 g
APTT (24 h): 16.3 s
Bas (24 h): 0%
Eos (24 h): 1%
Fbg (24 h): 314.2 mg/dL
Hb (24 h): 14.1 g/dL
Ht (24 h): 42%
Lym (24 h): 79.8%
MCH (24 h): 22 pg
MCHC (24 h): 33.5%
MCV (24 h): 65.5 fL
Mono (24 h): 2.4%
Neu (24 h): 16.6%
PT (24 h): 13.9 s
Plat (24 h): 130 x10_4/uL
RBC (24 h): 642 x10_4/ul
Ret (24 h): 7.4%
WBC (24 h): 86.7 x10_2/uL
KIDNEY_L (24 h): 1 g
KIDNEY_R (24 h): 1 g
KIDNEY_TOTAL (24 h): 2 g
LIVER (24 h): 10.9 g
A/G (24 h): 0.9
ALP (24 h): 1815 IU/L
ALT (24 h): 47 IU/L
AST (24 h): 67.4 IU/L
BUN (24 h): 16.2 mg/dL
CRE (24 h): 0.2 mg/dL
Ca (24 h): 11.3 mg/dL
Cl (24 h): 105.8 meq/L
DBIL (24 h): 0.01 mg/dL
GLC (24 h): 179.8 mg/dL
IP (24 h): 8.2 mg/dL
K (24 h): 4 meq/L
LDH (24 h): 60.6 IU/L
Na (24 h): 144.2 meq/L
PL (24 h): 155.4 mg/dL
RALB (24 h): 2.7 g/dL
TBIL (24 h): 0.04 mg/dL
TC (24 h): 81 mg/dL
TG (24 h): 92 mg/dL
TP (24 h): 5.5 g/dL
gamma-GTP (24 h): 1 IU/L
